Assay results taken from patent US6998240B2, “Screen for selective inhibitors or activators of Smad protein function” (Wisconsin Alumni Research Foundation, priority 2001, dated 2006).
Residues, ends and D or L forms follow the SMILES beside them.

What was measured:
[1] = biological target: Phosphorylated Smad2/4 Complex (Homo sapiens, UniProt Q15796); assay: 96 well microplate solid phase binding assay of GST-CBP to phosphorylated Smad2/4 complex; design: Smad2; 1–467; pBlueBac; His; Smad4; 1–552; Strep; Strep-tag; made in house
Protocol: Table 7, below, tabulates the results of a 96 well Microplate Format Binding Assay of CBP to Smad2 and Phosphorylated Smad2/4 Complex. Duplicate wells are shown with indicated amounts of Smad protein bound per well. Three different dilutions of biotinylated GST-CBP protein were added per well and incubated at room temperture for 1 hour. Wells were washed 3× with TBS+1% tween and Alkaline phosphatase conjugated strepavidin (Tropix) added. Bound conjugate was detected by addition of the CSPD substrate (Tropix) and relative light units (RLU) measured in a Tropix 717 microplate reader at a read time of 1 second per well.

Smad2-P [2] = biological target: T1, Smad2-P (Homo sapiens, UniProt Q15796); assay: HTRF assay of biotin-FAST peptide binding to Smad2-P (competition)
T1 construct: Smad2; 1–467; pBlueBac; His; made in house; host or cells: Sf9 insect cells (baculovirus), co-infected with virus for membrane-targeted human Alk5 T204D
Excerpt: (§1) To establish HTRF assays for Smad protein interactions, we have used reagents from Wallac-Perkin Elmer and Packard that include Europium-cryptate coupled to α-His epitope tag antibody, α-GST antibody or Streptavidin. As acceptor fluorophores we have used allophycocyanin (Packard's XL665) coupled to Streptavidin or direct labeling of GST-fusion protein with IC5 (Dojindo). Reagents are mixed in a 50 microliter volume in the wells of a 384 Black non-treated microwell plate (Corning) and HTRF detected in a Wallac Victor V multimode plate reader. The reader detects emission at 615 nm from the Europium chelate donor and at 665 nm from the APC or IC5 acceptor. Background, cross-talk and high FRET wells can be indicated on the plate map to allow the machine to compute a normalized value as a ratio Rn=(ET/D) Dmax where ET=A−BI−(C×D). • A—Fluorescence at 665 nm • BI—Blank (buffer only) at 665 nm • D—Fluorescence at 615 nm • C—Cross-talk correction value calculated from wells containing only donor fluorophore • (from “Quench Correction for LANCE TR-FRET” by Perkin-Elmer Wallace)
(§2) Over the past several months we have developed three HTRF assays for Smad binding interactions. All three assays use a Eu-chelate α-His epitope tag antibody as the donor. The antibody recognizes the hexahistidine epitope tag on the Smad proteins produced in the baculovirus expression system described above. As acceptors, we have used Streptavidin conjugated to allophycocyanin (Packard) that binds to biotinylated peptides. The peptides are synthesized to comprise the Smad interaction domain motif from human FAST or c-Jun (FIG. 3). The FAST 24-mer amino acid sequence is based on the homology between FAST, Mixer and Milk reported by Germain and colleagues (Germain, S., et al., supra, 2000). The24-mer C-JUN sequence is based on studies using deletions and gene fragments to define the Smad interaction motif (Zhang, Y., et al., supra, 1998; Liberati, N. T. et al., Proc. Natl. Acad. Sci. USA 96:4844–9, 1999). We also have developed an HTRF assay using IC5-GST-CBP, a fusion protein comprising the Smad interaction domain motif from CBP (a generous gift of Dr. Yigong Shi, Princeton University).
(§3) The assays are done in a 50 μl volume in the well of a 384-well plate. The assay buffer, as recommended by Packard for their HTRF reagents is 50 mM K-Hepes pH 7.0, 400 mM KF and 0.1% BSA. The high concentration of KF is recommended for the Eu(K) reagents from Packard. […] We have also optimized through many titrations the amount of Smad protein (220 ng/well, ˜4 pmoles per well of monomer), the concentration of biotinylated peptide (1 uMolar for FAST and C-JUN), the amount of Eu-anti-His tag antibody (36 ng/well) and the amount of Streptactin-APC (0.5 μg/well).
We used the FAST-SmadP HTRF assay described above. […] After 1 hr at room temperature, Streptavidin-APC was added to each well and 30 minutes later the fluorescence emissions at 615 nm and 665 nm were read in a PE-Wallac Victor V.

Smad2-P [3] = biological target: T1, Smad2-P; assay: HTRF assay of IC5-GST-CBP binding to phosphorylated Smad2
Excerpt: as §1, §2, §3
Table 5 contains data from using the GST-CBP fusion protein that is covalently coupled to the IC5 fluorophore acceptor through the cysteines in the GST portion of the fusion protein. There is no biotinylated peptide or Streptavidin-APC in these assays. […] The lower FRET counts could be due to larger distances between the donor and acceptor molecules in the complex. This might be overcome by using direct labeling of the Smad-P complex with Eu-cryptates rather than the Eu-labeled anti-His tag antibody.

CBP bound by Smad-P complexes relative to an equivalent amount of unphosphorylated Smad [1]: > 30 fold
competition for Biotin-FAST binding to Smad-2P (in words) (Smad2-P [2]): inability
competition for binding with the GST-CBP fusion protein (in words) (Smad2-P [3]): can compete
Average Normalized Counts (Smad2-P [3]; 50 μM inhibitor peptide, IC5-GST-CBP binding to Smad2-P): 587
remaining activity at 50 µM (Smad2-P [3]; 50 μM inhibitor peptide, IC5-GST-CBP binding to Smad2-P, read-out: Percent of Control (minus background)): 70%
Average Normalized Counts (Smad2-P [3]; 100 μM inhibitor peptide, IC5-GST-CBP binding to Smad2-P): 478
remaining activity at 100 µM (Smad2-P [3]; 100 μM inhibitor peptide, IC5-GST-CBP binding to Smad2-P, read-out: Percent of Control (minus background)): 51%
IC50 (Smad2-P [3]; read-out: concentration of peptide for 50% inhibition of GST-CBP binding): 100 µM
SMILES: CC[C@H](C)[C@H](NC(=O)[C@H](CC(N)=O)NC(=O)[C@@H](NC(=O)[C@H](CCCNC(=N)N)NC(=O)[C@H](Cc1ccc(O)cc1)NC(=O)[C@H](CC(C)C)NC(=O)[C@H](Cc1c[nH]cn1)NC(=O)[C@H](CCC(N)=O)NC(=O)[C@H](CCC(N)=O)NC(=O)[C@H](CCC(N)=O)NC(=O)[C@H](CCC(N)=O)NC(=O)[C@H](C)NC(=O)[C@H](CCC(=O)O)NC(=O)[C@H](CCCNC(=N)N)NC(=O)[C@H](CCC(=O)O)NC(=O)[C@@H](NC(=O)[C@H](CCC(N)=O)NC(=O)[C@H](CCCNC(=N)N)NC(=O)[C@H](C)NC(=O)[C@H](C)NC(=O)[C@H](CCC(=O)O)NC(=O)[C@@H](NC(=O)[C@H](C)N)C(C)C)[C@@H](C)CC)C(C)C)C(N)=O [CBP] (H-AVEAARQIEREAQQQQHLYRVNI-NH2; N-terminus assumed)
